Test system: construct 1 (consensus-type glmS ribozyme, A6 and A58) (RNA, ribozyme) GGUAAAUUAUAAAAGCGCCAGAACUACAGAAAUGUAGUUGACGAGGAGGAGGUUUAUCGAAUUUUCGGCGGAUGCCUCC
Assay: half-maximal kobs of ligand-dependent self-cleavage
Conditions: 20 mM Mg2+; 50 mM Tris-HCl pH 7.5, 23 °C; GlcN6P varied

Question: How did the “apparent Kd” value turn out when N[C@H]1C(O)O[C@H](COP(=O)(O)O)[C@@H](O)[C@@H]1O (stereo partly shown) was run?
Answer: ~ 200 µM
